In patent US4971966A, “Substituted pyrido(2,3-B) (1,4) benzodiazepin-6-ones, and medicaments containing these compounds” (Karl Thomae GmbH, priority 1986, dated 1990):
Where two headings read alike, the source gives them in different places.

What was measured:
[1] = test system: pilocarpine-induced secretion of saliva; assay: Effect inhibiting secretion of saliva in the rat; assay type: in vivo, male THOM rats; settings: iv, 2 mg/kg pilocarpine s.c., urethane anaesthesia, read-out: Inhibition of secretion of saliva (rat) ED50
Procedure: Secretion of saliva was induced by s.c. administration of 2 mg/kg pilocarpine. The saliva was absorbed using blotting paper, and the area covered by it was determined by planimetry every 5 minutes. The dose of the substance which reduced the volume of saliva by 50% was determined graphically.

[2] = molecular target: T1, muscarinic receptors, submandibular gland (Rattus norvegicus, UniProt P08483); assay: Receptor binding assay in vitro, submandibular gland (3H-NMS displacement); design: species or system male Sprague-Dawley rats; settings: rat submandibular gland homogenate; 0.3 nmolar 3H-NMS, 30° C., 45 min, pH 7.4
T1 construct: After removal of the heart, submandibular gland and cerebral cortex; from tissue; host or cells: rat submandibular gland homogenate
T1 sequence (P08483 whole entry): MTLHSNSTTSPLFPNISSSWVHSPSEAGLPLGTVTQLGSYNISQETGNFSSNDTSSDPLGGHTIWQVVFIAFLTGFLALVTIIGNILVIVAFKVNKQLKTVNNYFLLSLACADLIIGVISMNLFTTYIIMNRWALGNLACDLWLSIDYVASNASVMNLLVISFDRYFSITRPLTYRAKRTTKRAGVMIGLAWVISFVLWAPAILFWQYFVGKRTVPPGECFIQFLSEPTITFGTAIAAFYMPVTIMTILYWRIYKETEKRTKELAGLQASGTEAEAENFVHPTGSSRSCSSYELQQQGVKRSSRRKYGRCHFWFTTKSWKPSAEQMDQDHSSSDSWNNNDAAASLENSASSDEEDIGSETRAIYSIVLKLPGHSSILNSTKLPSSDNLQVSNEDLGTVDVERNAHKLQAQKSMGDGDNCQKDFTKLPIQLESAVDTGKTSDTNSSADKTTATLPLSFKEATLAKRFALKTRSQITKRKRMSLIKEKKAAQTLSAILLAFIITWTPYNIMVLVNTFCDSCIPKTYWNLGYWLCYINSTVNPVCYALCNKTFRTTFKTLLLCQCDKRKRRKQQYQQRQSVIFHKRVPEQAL

[3] = molecular target: T2, muscarinic receptors, heart ventricle (Rattus norvegicus, UniProt P10980); assay: Receptor binding assay in vivo, heart ventricle; design: species or system female rats; settings: iv, 0.5 h, read-out: ID50, heart ventricle
T2 construct: the heart, the bronchi and the lacrimal glands were removed; from tissue; host or cells: rat heart ventricle, labelled in vivo
T2 sequence (P10980 1-466): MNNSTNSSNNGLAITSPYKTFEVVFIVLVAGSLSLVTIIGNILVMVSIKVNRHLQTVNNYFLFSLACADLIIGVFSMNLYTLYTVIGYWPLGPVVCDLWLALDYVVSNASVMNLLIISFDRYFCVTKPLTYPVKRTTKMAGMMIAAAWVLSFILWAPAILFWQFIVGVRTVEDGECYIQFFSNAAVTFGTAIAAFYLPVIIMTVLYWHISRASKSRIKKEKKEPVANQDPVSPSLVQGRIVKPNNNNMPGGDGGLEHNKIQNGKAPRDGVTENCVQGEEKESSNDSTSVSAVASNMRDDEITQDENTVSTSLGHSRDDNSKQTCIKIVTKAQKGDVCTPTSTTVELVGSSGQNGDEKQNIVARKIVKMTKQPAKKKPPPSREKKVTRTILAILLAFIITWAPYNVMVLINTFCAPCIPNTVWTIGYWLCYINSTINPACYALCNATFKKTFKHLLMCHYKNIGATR
Procedure: (§1) Female rats with a body weight of about 200 g were used for these experiments. Before the start of the experiment, the animals were anaesthetised with a dose of 1.25 g/kg urethane. The animals each received the specified dose of the test substance by i.v. injection. After 15 minutes had elapsed 113 ng/kg ^3 H-N-methylscopolamine (^3 H-NMS) were administered in the same way. After a further 15 minutes, the animals were sacrificed, and the heart, the bronchi and the lacrimal glands were removed. These organs were dissolved in Soluene R, and the radioactivity was determined. These measurements were assumed to be the total binding. […] ID50 values were determined for the individual organs from these experiments.

M2 = molecular target: T3, M2 (Rattus norvegicus, UniProt P10980); assay: M1/M2 selectivity in the rat: M2-activity (vagal bradycardia); assay type: in vivo, male THOM rats; settings: iv, read-out: M2-activity (rat) ED50
T3 construct: The bradycardia induced by stimulation of the vagus; from tissue; host or cells: living male THOM rat, heart
T3 sequence (P10980 1-466): T2 sequence (P10980 1-466)
Procedure: The method which was used has been described by Hammer and Giachetti (Life Sciences 31, 2991-2998 (1982)). Five minutes after intravenous injection of increasing doses of the substance, either the right vagus was electrically stimulated (frequency: 25 Hz; pulse width: 2ms; stimulus duration: 30s; number of volts: supramaximal) or 0.3 mg/kg McN-A-343 was injected intravenously into male THOM rats. The bradycardia induced by stimulation of the vagus, and the increase in blood pressure caused by McN-A-343, were determined. The dose of the substances which reduced either the vagal bradycardia (M2) or the increase in blood pressure (M1) by 50% was determined graphically.

[4] = test system: muscarinic receptors, bronchi; assay: Receptor binding assay in vivo, bronchi; design: species or system female rats; settings: i.v.; inhibition of 50% of specific 3H-NMS binding; 30 min
Procedure: as §1

[5] = molecular target: T4, muscarinic receptors, complete heart (Rattus norvegicus, UniProt P10980); assay: biochemical
T4 sequence (P10980 1-466): T2 sequence (P10980 1-466)

[6] = molecular target: T5, muscarinic receptors, ileum (Cavia porcellus, UniProt H0W1Z3); assay: Dissociation constants in vitro on the ileum; design: species or system guinea pig; settings: ileum contractions; methacholine agonist; 30 min contact; Arunlakshana and Schild; read-out: Dissociation constant KB, ileum
T5 construct: The ileum was removed and incubated in Krebs-Henseleit solution in an organ bath; from tissue; host or cells: guinea pig isolated ileum
T5 sequence (H0W1Z3 1-590): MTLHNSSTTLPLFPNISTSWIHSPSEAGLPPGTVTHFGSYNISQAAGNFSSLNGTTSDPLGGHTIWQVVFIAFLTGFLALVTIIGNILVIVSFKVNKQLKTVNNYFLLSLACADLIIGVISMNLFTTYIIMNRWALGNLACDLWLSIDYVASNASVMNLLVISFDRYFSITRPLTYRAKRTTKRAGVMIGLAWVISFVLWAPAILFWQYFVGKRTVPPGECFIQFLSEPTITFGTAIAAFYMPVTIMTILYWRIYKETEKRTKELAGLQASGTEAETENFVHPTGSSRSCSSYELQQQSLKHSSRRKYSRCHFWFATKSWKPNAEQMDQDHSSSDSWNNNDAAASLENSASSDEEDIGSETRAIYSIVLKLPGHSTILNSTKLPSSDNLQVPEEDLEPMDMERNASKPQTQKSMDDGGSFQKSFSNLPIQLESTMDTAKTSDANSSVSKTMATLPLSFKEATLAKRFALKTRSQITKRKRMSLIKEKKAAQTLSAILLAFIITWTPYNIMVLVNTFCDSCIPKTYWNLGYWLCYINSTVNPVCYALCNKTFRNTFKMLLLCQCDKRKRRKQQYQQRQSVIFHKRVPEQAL
Procedure: (§2) Dissociation constants (KB values) were determined "in vitro" on the ileum and spontaneously beating atrium of the guinea pig. The ileum was removed and incubated in Krebs-Henseleit solution in an organ bath. Contractions were induced by increasing concentrations of methacholine (M) in such a way that it was possible to construct complete concentration-effect curves. Then M was washed out, the substance to be investigated was added and left in contact for 30 minutes, and again a concentration-effect curve with M was constructed.

[7] = molecular target: muscarinic receptors, cerebral cortex; assay: Receptor binding assay in vitro, cerebral cortex (3H-NMS displacement); design: species or system male Sprague-Dawley rats; settings: rat cerebral cortex homogenate; 0.3 nmolar 3H-NMS, 30° C., 45 min, pH 7.4
Procedure: The organ donors were male Sprague-Dawley rats with a body weight of 180-220 g. […] Finally, all the organs were processed in a potter homogeniser. […] The organ homogenates were incubated at a defined concentration of the radio-ligand and a series of concentrations of the non-radioactive test substances in Eppendorf centrifuge tubes at 30° C. The incubation lasted 45 minutes. The radioligand used was 0.3 nmolar ^3 H-N-methylscopolamine (^3 H-NMS). The incubation was stopped by addition of ice-cold buffer, followed by a vacuum filtration. The filters were washed with cold buffer, and their radioactivity was determined. This represents the total of specific and non-specific binding of ^3 H-NMS. The contribution of the non-specific binding was defined as that radioactivity which was bound in the presence of 1 micromolar quinuclidinyl benzylate. Determinations were always carried out in quadruplicate. The IC50 values of the unlabelled test substances were determined graphically.

[8] = molecular target: T6, muscarinic receptors, lacrimal glands (Rattus norvegicus, UniProt P08483); assay: Receptor binding assay in vivo, lacrimal gland; design: species or system female rats; settings: iv, 0.5 h, read-out: ID50, lacrimal gland
T6 construct: the heart, the bronchi and the lacrimal glands were removed; from tissue; host or cells: rat lacrimal glands, labelled in vivo
T6 sequence (P08483 whole entry): as the sequence (P08483 whole entry) above
Procedure: as §1

M1 = molecular target: T7, M1 (Rattus norvegicus, UniProt P08482); assay: M1/M2 selectivity in the rat: M1-activity (increase in blood pressure caused by McN-A-343); assay type: in vivo, male THOM rats; settings: iv, read-out: M1-activity (rat) ED50
T7 construct: from tissue; host or cells: living male THOM rat, sympathetic ganglia (site by own knowledge)
T7 sequence (P08482 1-460): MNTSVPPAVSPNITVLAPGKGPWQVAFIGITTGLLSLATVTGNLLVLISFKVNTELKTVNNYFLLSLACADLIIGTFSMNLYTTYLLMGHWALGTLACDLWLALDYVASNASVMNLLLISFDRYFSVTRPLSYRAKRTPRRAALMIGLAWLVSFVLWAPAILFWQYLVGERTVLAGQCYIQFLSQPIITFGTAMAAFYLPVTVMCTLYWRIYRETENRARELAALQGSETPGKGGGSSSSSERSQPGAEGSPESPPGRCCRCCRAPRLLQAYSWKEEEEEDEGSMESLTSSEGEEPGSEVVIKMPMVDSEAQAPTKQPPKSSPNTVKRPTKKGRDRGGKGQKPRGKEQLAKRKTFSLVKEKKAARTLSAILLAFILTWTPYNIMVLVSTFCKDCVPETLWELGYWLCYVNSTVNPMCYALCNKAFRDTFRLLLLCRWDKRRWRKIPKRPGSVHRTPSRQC
Procedure: The dose of the substances which reduced either the vagal bradycardia (M2) or the increase in blood pressure (M1) by 50% was determined graphically.

[9] = molecular target: T8, muscarinic receptors, heart atrium (Rattus norvegicus, UniProt P10980); assay: Receptor binding assay in vivo, heart atrium; design: species or system female rats; settings: iv, 0.5 h, read-out: ID50, heart atrium
T8 construct: the heart, the bronchi and the lacrimal glands were removed; from tissue; host or cells: rat heart atrium, labelled in vivo
T8 sequence (P10980 1-466): T2 sequence (P10980 1-466)
Procedure: as §1

[10] = test system: heart rate, conscious dog; assay: Effect increasing the heart rate in the conscious dog (tachycardia); assay type: in vivo; settings: for ED50: Canis lupus familiaris, dose for increase of 50 beats/min.
Procedure: The substances were either injected intravenously or administered orally, and the heart rate was measured using a tachygraph. After a control period, increasing doses of the compound were administered in order to increase the heart rate. In each case, the next dose was administered when the effect of the preceding dose was no longer evident. The dose of a substance which brought about an increase of 50 beats/min. (ED50) was determined graphically. Each substance was examined on 3 to 5 dogs.

[11] = molecular target: T9, muscarinic receptors of the atrium (Cavia porcellus, UniProt H0VRN8); assay: Dissociation constants in vitro on the spontaneously beating right atrium; design: species or system guinea pig; settings: methacholine agonist, 30 min contact, Arunlakshana and Schild, read-out: Dissociation constant KB, heart
T9 construct: In the isolated, spontaneously beating right atrium, M reduced the heart rate; from tissue; host or cells: guinea pig isolated right atrium
T9 sequence (H0VRN8 1-466): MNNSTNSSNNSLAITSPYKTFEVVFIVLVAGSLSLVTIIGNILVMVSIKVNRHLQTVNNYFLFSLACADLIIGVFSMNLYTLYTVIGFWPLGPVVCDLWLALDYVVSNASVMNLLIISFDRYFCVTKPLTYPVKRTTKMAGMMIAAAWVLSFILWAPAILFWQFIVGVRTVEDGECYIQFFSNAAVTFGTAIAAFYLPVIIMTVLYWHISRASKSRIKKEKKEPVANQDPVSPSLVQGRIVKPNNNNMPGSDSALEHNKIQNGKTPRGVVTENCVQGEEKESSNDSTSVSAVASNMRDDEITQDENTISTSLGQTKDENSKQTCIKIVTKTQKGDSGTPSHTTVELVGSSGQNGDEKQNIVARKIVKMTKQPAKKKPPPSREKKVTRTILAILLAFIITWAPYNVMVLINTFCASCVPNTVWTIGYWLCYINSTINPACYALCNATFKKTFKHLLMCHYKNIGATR
Procedure: as §2
Dissociation constants for the muscarinic receptors of the atrium were obtained in the same way as described above. Comparison of the dissociation constants determined in the two tissues permitted cardioselective substances to be identified.

Row | IC50 [2] | ED50 (M2; 50% reduction of vagal bradycardia) | IC50 [5] | Kb [6] | IC50 [7] | SMILES | ED50 [1] | ED50 [3] | ID50, bronchi [4] | ED50 [8] | ED50 (M1; 50% reduction of McN-A-343 (0.3 mg/kg i.v.) blood pressure increase) | ED50 [9] | ED50 ([10]; intravenous, read-out: Tachycardia (dog) ED50 intravenous) | ED50 ([10]; oral, read-out: Tachycardia (dog) ED50 oral) | Ratio ED50 p.o./ED50 i.v. ([10]; tachycardia, conscious dog) | Kb [11] | ED50 (M2) | ED50 (M1)
1 | – | – | – | – | – | CN1CCN(CC(=O)N2c3ccccc3C(=O)Nc3cccnc32)CC1 [Substance C, 5,11-dihydro-11-[(4-methyl-1-piperazinyl)acetyl]-6H-pyrido[2,3-b][1,4]benzodiazepin-6one] | 0.084 mg/kg | – | – | – | – | – | – | – | – | – | – | –
2 | 1500 nM | 0.077 mg/kg | 50 nM | 513 nM | 500 nM | CCN(CC)CC1CCCCN1CC(=O)N1c2cc(Cl)ccc2C(=O)Nc2cccnc21 (stereo not drawn) [Substance A, 9-chloro-11-[[2-[(diethylamino)methyl]-1-piperidinyl]-acetyl]-5,11-dihydro-6H-pyrido[2,3-b]-[1,4]benzodiazepin-6-one] | 7.57 mg/kg | 0.3 mg/kg | 8.0 mg/kg | 30 mg/kg | 1.48 mg/kg | 0.6 mg/kg | 0.17 mg/kg | 0.38 mg/kg | 2 | 14.8 nM | – | –
3 | – | – | – | – | – | CN1[C@@H]2CC[C@H]1CC(OC(=O)C(CO)c1ccccc1)C2 (stereo partly drawn) [Substance D, atropine, reference compound] | – | 0.03 mg/kg | 0.1 mg/kg | 0.2 mg/kg | – | 0.08 mg/kg | – | – | – | 1.41 nM | 0.004 mg/kg | 0.016 mg/kg
4 | – | – | – | – | – | CCN(CC)CC1CCCCN1CC(=O)N1c2ccccc2C(=O)Nc2cccnc21 (stereo not drawn) [Substance B, 11-[[2-[(diethylamino)methyl]-1-piperidinyl]acetyl]-5,11-dihydro-6H-pyrido[2,3-b][1,4]benzodiazepin-6-one] | – | – | – | 30 mg/kg | – | – | – | – | – | – | – | –
